Experiments:
PPARα = target: T1, PPARα (Homo sapiens, UniProt Q07869); assay: In vitro PPARα transactivation assay (Gal4-hPPARαLBD luciferase reporter in 293E cells); assay type: cell-based; settings: 24 h; for PPARα Activation Fold: 10^−5 M, Csamples/Ccontrol, mean±SEM
T1 construct: pcDNA3.1-hPPARαLBD-Gal4DB; expressed in transfected cells; host or cells: 293E cells
T1 sequence (Q07869 239-466 limits assumed): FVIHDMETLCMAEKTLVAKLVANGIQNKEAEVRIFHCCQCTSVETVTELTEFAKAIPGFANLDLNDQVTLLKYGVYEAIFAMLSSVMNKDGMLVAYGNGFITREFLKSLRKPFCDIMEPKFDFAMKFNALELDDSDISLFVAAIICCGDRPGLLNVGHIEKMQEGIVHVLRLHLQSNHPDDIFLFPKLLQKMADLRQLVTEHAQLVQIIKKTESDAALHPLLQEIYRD

PPARδ [1] = target: T2, PPARδ (Homo sapiens, UniProt Q03181); assay: In vitro PPARδ transactivation assay (Gal4-hPPARδLBD luciferase reporter in 293E cells); settings: for PPARδ Activation Fold: 10^−5 M, 24 h, Csamples/Ccontrol, mean±SEM; for Cmax: read-out: Cmax, concentration at maximum efficiency percentage (Max%), PPARδ, 24 h, multiple concentrations
T2 sequence (Q03181 211-439 limits assumed): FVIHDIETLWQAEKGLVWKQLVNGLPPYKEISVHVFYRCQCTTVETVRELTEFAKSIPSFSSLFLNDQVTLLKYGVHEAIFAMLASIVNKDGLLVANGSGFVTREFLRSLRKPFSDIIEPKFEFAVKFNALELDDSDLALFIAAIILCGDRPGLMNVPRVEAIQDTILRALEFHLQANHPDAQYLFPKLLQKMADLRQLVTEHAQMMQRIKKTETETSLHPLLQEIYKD

PPARγ = target: T3, PPARγ (Homo sapiens, UniProt P37231); assay: In vitro PPARγ transactivation assay (Gal4-hPPARγLBD luciferase reporter in 293E cells); settings: 10^−5 M, 24 h, Csamples/Ccontrol, mean±SEM
T3 sequence (P37231 238-503 limits assumed): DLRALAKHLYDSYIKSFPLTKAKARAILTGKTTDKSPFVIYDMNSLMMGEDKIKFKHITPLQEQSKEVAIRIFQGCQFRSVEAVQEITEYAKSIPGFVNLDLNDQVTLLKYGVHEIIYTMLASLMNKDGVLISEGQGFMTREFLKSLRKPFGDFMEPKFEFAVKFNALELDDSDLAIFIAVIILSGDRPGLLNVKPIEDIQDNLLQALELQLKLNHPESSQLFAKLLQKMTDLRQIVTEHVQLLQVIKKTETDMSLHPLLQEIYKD

PPARδ [2] = target: T2, PPARδ; assay: cell-based

| SMILES | PPARα Activation Fold (PPARα) | PPARδ Activation Fold (PPARδ [1]) | PPARγ Activation Fold (PPARγ) | Cmax (PPARδ [1]) [nM] | EC50 (PPARδ [2]) [nM] | EC50 (PPARα; multiple concentrations) [nM] | Cmax (PPARα; multiple concentrations, read-out: Cmax, concentration at maximum efficiency percentage (Max%), PPARα) [nM] |
| --- | --- | --- | --- | --- | --- | --- | --- |
| CC(C)(Oc1ccc(OCCn2ccc3ccccc32)cc1)C(=O)O [6a, 2-(4-(2-(1H-indol-1-yl)ethoxy)phenoxy)-2-methylpropanoic acid] | 1.00±0.07 | 0.97±0.09 | 1.21±0.09 |  |  |  |  |
| CC(C)(Oc1ccc(OCCn2c3ccccc3c3ccccc32)cc1)C(=O)O [6b, 2-(4-(2-(9H-carbazol-9-yl)ethoxy)phenoxy)-2-methylpropanoic acid] | 0.80±0.00 | 1.23±0.07 | 1.19±0.00 |  |  |  |  |
| CC(C)(Oc1ccc(OCCCn2ccc3ccccc32)cc1)C(=O)O [6c, 2-(4-(3-(1H-indol-1-yl)propoxy)phenoxy)-2-methylpropanoic acid] | 1.78±0.10 | 0.94±0.02 | 1.40±0.18 |  |  |  |  |
| CC(C)(Oc1ccc(OCCCn2c3ccccc3c3ccccc32)cc1)C(=O)O [6d, 2-(4-(3-(9H-carbazol-9-yl)propoxy)phenoxy)-2-methylpropanoic acid] | 1.96±0.17 | 1.13±0.03 | 1.57±0.00 |  |  |  |  |
| CC(C)(Oc1ccc(OCCCn2cnc3ccccc32)cc1)C(=O)O [6e, 2-(4-(3-(1H-benzo[d]imidazol-1-yl)propoxy)phenoxy)-2-methylpropanoic acid] | 1.38±0.06 | 7.09±0.97 | 1.26±0.01 | 100 | 11.1 |  |  |
| CC(C)(Oc1cccc(OCC(=O)c2ccccc2)c1)C(=O)O [6f, 2-Methyl-2-(3-(2-oxo-2-phenylethoxy)phenoxy)propanoic acid] | 1.58±0.09 | 1.27±0.09 | 1.22±0.01 |  |  |  |  |
| CC(C)(Oc1cccc(OCCCn2ccc3ccccc32)c1)C(=O)O [6h, 2-(3-(3-(1H-indol-1-yl)propoxy)phenoxy)-2-methylpropanoic acid] | 3.81±0.83 | 0.78±0.15 | 1.57±0.25 |  |  | 5300 | 10000 |
| CC(C)(Oc1cccc(OCCCn2c3ccccc3c3ccccc32)c1)C(=O)O [6i, 2-(3-(3-(9H-carbazol-9-yl)propoxy)phenoxy)-2-methylpropanoic acid] | 1.32±0.22 | 0.88±0.13 | 2.87±0.33 |  |  |  |  |
| CC(C)(Oc1cccc(OCCCn2cnc3ccccc32)c1)C(=O)O [6j, 2-(3-(3-(1H-benzo[d]imidazol-1-yl)propoxy)phenoxy)-2-methylpropanoic acid] | 0.97±0.15 | 0.86±0.03 | 1.17±0.00 |  |  |  |  |
| CC(C)(Oc1cccc(OCCCc2ccccc2)c1)C(=O)O [6k, 2-Methyl-2-(3-(3-phenylpropoxy)phenoxy)propanoic acid] | 1.50±0.08 | 0.99±0.22 | 1.62±0.11 |  |  |  |  |
| CC(C)(Oc1cccc(OCc2cccnc2)c1)C(=O)O [6l, 2-Methyl-2-(3-(pyridin-3-ylmethoxy)phenoxy)propanoic acid] | 1.39±0.21 | 6.60±0.90 | 1.34±0.01 | 100 | 1.9 |  |  |
| CC(C)(Oc1ccc(OCCCc2ccccc2)cc1)C(=O)O [6m, 2-Methyl-2-(4-(3-phenylpropoxy)phenoxy)propanoic acid] | 2.01±0.22 | 1.73±0.03 | 2.26±0.18 |  |  |  |  |
| CC(C)(Oc1ccc(OCC(=O)c2ccccc2)cc1)C(=O)O [6n, 2-Methyl-2-(4-(2-oxo-2-phenylethoxy)phenoxy)propanoic acid] | 1.16±0.02 | 1.24±0.06 | 1.31±0.12 |  |  |  |  |
| CC(C)(Oc1cccc(OCCn2ccc3ccccc32)c1)C(=O)O [6o, 2-(3-(2-(1H-indol-1-yl)ethoxy)phenoxy)-2-methylpropanoic acid] | 1.01±0.11 | 1.00±0.24 | 3.01±0.16 |  |  |  |  |
| c1ccc2c(c1)ccn2CCOc1ccc(OCc2nn[nH]n2)cc1 [10a, 1-(2-(4-((2H-tetrazol-5-yl)methoxy)phenoxy)ethyl)-1H-indole] | 0.76±0.04 | 1.28±0.06 | 1.30±0.06 |  |  |  |  |
| c1ccc2c(c1)c1ccccc1n2CCOc1ccc(OCc2nn[nH]n2)cc1 [10b, 9-(2-(4-((2H-tetrazol-5-yl)methoxy)phenoxy)ethyl)-9H-carbazole] | 0.55±0.03 | 1.39±0.21 | 1.26±0.22 |  |  |  |  |
| c1ccc2c(c1)ccn2CCCOc1ccc(OCc2nn[nH]n2)cc1 [10c, 1-(3-(4-((2H-tetrazol-5-yl)methoxy)phenoxy)propyl)-1H-indole] | 0.67±0.02 | 1.01±0.08 | 0.96±0.01 |  |  |  |  |
| c1ccc2c(c1)c1ccccc1n2CCCOc1ccc(OCc2nn[nH]n2)cc1 [10d, 9-(3-(4-((2H-tetrazol-5-yl)methoxy)phenoxy)propyl)-9H-carbazole] | 0.50±0.04 | 1.15±0.22 | 0.96±0.02 |  |  |  |  |
| c1ccc(CCCOc2ccc(OCc3nn[nH]n3)cc2)cc1 [10e, 5-((4-(3-Phenylpropoxy)phenoxy)methyl)-2H-tetrazole] | 1.91±0.13 | 1.26±0.15 | 1.93±0.23 |  |  |  |  |
| c1cncc(COc2ccc(OCc3nn[nH]n3)cc2)c1 [10f, 3-((4-((2H-tetrazol-5-yl)methoxy)phenoxy)methyl)pyridine] | 0.80±0.02 | 1.02±0.09 | 1.24±0.07 |  |  |  |  |
| c1cc(OCCn2ccc3ccccc32)cc(OCc2nn[nH]n2)c1 [10g, 1-(2-(3-((2H-tetrazol-5-yl)methoxy)phenoxy)ethyl)-1H-indole] | 0.90±0.05 | 0.83±0.04 | 2.83±0.49 |  |  |  |  |
| c1cc(OCCCn2ccc3ccccc32)cc(OCc2nn[nH]n2)c1 [10i, 1-(3-(3-((2H-tetrazol-5-yl)methoxy)phenoxy)propyl)-1H-indole] | 0.89±0.19 | 0.77±0.01 | 1.19±0.09 |  |  |  |  |
| c1cc(OCCCn2c3ccccc3c3ccccc32)cc(OCc2nn[nH]n2)c1 [10j, 9-(3-(3-((2H-tetrazol-5-yl)methoxy)phenoxy)propyl)-9H-carbazole] | 0.65±0.00 | 0.88±0.09 | 0.69±0.01 |  |  |  |  |
| c1ccc(CCCOc2cccc(OCc3nn[nH]n3)c2)cc1 [10k, 5-((3-(3-Phenylpropoxy)phenoxy)methyl)-2H-tetrazole] | 0.74±0.09 | 1.24±0.17 | 1.46±0.20 |  |  |  |  |
| c1cncc(COc2cccc(OCc3nn[nH]n3)c2)c1 [10l, 3-((3-((2H-tetrazol-5-yl)methoxy)phenoxy)methyl)pyridine] | 1.15±0.06 | 9.56±2.50 | 1.07±0.03 | 100 | 27.3 |  |  |
